Assay results from US6410790B1, “3-amin3-arylpropan-1-ol compounds, their preparation and use” (priority 1999, dated 2002).

Legend:
[1] = tested on: phenylquinone-induced writhing reaction; assay: phenylquinone-induced writhing test in mice; assay type: in vivo; details: male NMRI mice, phenylquinone i.p. 10 minutes later; for inhibition in vivo at 10 mg/kg: Mus musculus, iv, 10 min, 10 mg/kg intravenously
Summary of the method: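 Male NMRI mice (25–30 g, n=10/group) received test substance i.v. at 10 mg/kg, then 0.02% phenylquinone i.p. 10 min later. Writhing reactions were counted 5–20 min after phenylquinone; % inhibition is relative to saline-treated controls.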

[2] = molecular target: T1, NA transporter (Rattus norvegicus, UniProt Q63380); assay: synaptosomal noradrenaline uptake inhibition (NA uptake inhibition); assay type: biochemical; details: for NA Uptake Inhibition at 1 μM: 1 μM in the assay, synaptosomes from rat hypothalamus; for inhibition at 1 µM: read-out: NA Uptake Inhibition at 1 μM, 1 μM in the assay, synaptosomes from rat hypothalamus
T1 construct: synaptosomes are isolated fresh from rat brains; from tissue; host or cells: rat hypothalamus synaptosomes (P2 fraction)
Summary of the method: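 IC50 values converted to Ki via Cheng-Prusoff; Km by Lineweaver-Burk. N=4 independent series, each in triplicate, mean ± SEM.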

[3] = tested on: phenylalkylamine binding site of the L-type calcium channel; assay: Verapamil binding, L calcium channel; details: for Verapamil Binding at 10 μM: percentage inhibition, N-methyl-[3H]-verapamil 2 nM
Procedure: Binding Investigations in the L Calcium Channel
Phenylalkylamine Binding Site (Verapamil Binding)
The biological material (ion channel particles) was prepared on the basis of the publication of Reynolds, Gould and Snyder (I. J. Reynolds, R. J. Gould and S. H. Snyder (1983) […]. 95, 319-321).
N-methyl-[^3H]-verapamil (2 nM in the assay) was used as radioligand. The radioactivity that is measured in the presence of non-radioactive verapamil (10^−4 M in the assay) is defined as non-specific binding. The material was incubated at 25° C. for 45 minutes. The material was then filtered using a Whatman GF/B filter, followed by washing. The radioactivity remaining on the filter (ion channel binding) was measured using a β-counter.
For this purpose IC50 values are obtained, which can be converted to inhibitor constants (Ki) according to the “Cheng-Prusoff equation” (Y. C. Clieng and W. H. Prusoff (1973) Biochem. Pharmacol. 22, 3099-3108). The IC50 values were obtained by means of the computer program “Figure P” (version 6.0, Biosoft, Cambridge, England). Km values were calculated according to Lineweaver and Burk (H. Lineweaver and D. Burk (1934) J. Am. Chem. Soc. 56, 658-666). The “Ligand” computer program (version 4, Biosoft, England) was used to obtain Ken values.

[4] = tested on: benzothiazepine binding site of the L-type calcium channel; assay: Diltiazem binding, L calcium channel; set-up: species or system rat; details: 10 μM, percentage inhibition, [3H]-cis-(+)-diltiazem 5 nM, rat cerebral cortex membranes
Summary of the method: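 Rat cerebral cortex membranes incubated with [^3H]-cis-(+)-diltiazem (5 nM) for 20 min at 25° C; nonspecific binding defined with (±)-diltiazem (10^−6 M). Bound ligand collected by GF/B filtration and counted; IC50 values converted to Ki by Cheng-Prusoff.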

[5] = tested on: binding site 2 of the sodium channel; assay: BTX binding, sodium channel; details: 10 μM, percentage inhibition, [3H]-batrachotoxin A20 α-benzoate 10 nM, rat cerebral cortex synaptosomes
Summary of the method: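 Rat cerebral cortex synaptosomes incubated with 10 nM [^3H]-batrachotoxin A20 α-benzoate at 37° C for 120 min; non-specific binding defined with 0.3 mM veratridine. IC50 values converted to Ki via Cheng-Prusoff; means±SEM of 3 independent series run in triplicate.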

T1 sequence (Q63380 1-617): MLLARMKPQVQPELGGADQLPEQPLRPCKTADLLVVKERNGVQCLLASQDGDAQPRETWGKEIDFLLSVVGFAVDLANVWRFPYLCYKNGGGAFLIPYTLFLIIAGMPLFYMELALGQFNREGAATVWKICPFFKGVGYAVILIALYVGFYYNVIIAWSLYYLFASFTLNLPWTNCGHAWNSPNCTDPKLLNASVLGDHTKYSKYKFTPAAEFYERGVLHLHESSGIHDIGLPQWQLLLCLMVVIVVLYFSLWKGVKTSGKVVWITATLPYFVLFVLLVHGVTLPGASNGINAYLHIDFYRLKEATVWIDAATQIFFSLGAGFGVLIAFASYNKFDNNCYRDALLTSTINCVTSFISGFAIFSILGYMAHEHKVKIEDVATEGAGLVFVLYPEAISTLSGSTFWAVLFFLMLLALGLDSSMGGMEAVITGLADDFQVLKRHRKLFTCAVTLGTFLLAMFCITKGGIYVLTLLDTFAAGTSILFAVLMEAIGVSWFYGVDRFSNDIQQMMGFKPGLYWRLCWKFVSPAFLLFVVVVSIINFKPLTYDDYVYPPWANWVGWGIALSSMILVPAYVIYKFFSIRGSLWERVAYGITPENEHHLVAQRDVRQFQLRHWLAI

Row | SMILES | inhibition in vivo at 10 mg/kg [1] [%] | Diltiazem Binding at 10 μM [4] [%] | NA Uptake Inhibition at 1 μM [2] [%] | Verapamil Binding at 10 μM [3] [%] | BTX Binding at 10 μM [5] [%] | inhibition at 1 µM [2] [%] | further results
1 | CN(C)C(c1ccccc1)C1CCCCC1(O)c1ccc(Cl)c(Cl)c1.Cl (single isomer, unassigned; (+)) [+19, (+)-1-(3,4-dichlorophenyl)-2-(dimethylaminophenylmethyl)cyclohexanol, hydrochloride] | 74 | 85 |  |  |  |  | NA Uptake Inhibition at 1 μM ([2]; hydrochloride): 62%; Verapamil Binding at 10 μM ([3]; hydrochloride): 82%; BTX Binding at 10 μM ([5]; hydrochloride): 92%
2 | CN(C)C(c1ccccc1)C1CCCCC1(O)c1ccc(Cl)c(Cl)c1.Cl (single isomer, unassigned; (-)) [−19, (−)-1(3,4-dichlorophenyl)-2-(dimethylaminophenylmethyl)cyclohexanol, hydrochloride] |  | 85 |  |  |  |  | % Inhibition of the writhing reaction at 10 mg/kg intravenously ([1]; hydrochloride, 10 mg/kg): 88%; NA Uptake Inhibition at 1 μM ([2]; hydrochloride): 36%; Verapamil Binding at 10 μM ([3]; hydrochloride): 83%; BTX Binding at 10 μM ([5]; hydrochloride): 96%
3 | COc1cccc(C2(O)CCCCC2C(c2ccccc2)N(C)C)c1.Cl (stereo not drawn) [Example 1, 2-(dimethlylaminophenylmethyl)-1-(3-methoxyphenyl)cyclohexanol, hydrochloride] |  | 65 | 41 | 76 | 77 |  | % Inhibition of the writhing reaction at 10 mg/kg intravenously [1]: 85%
4 | CN(C)C(c1ccccc1)C1CCCCC1(O)c1cccc(F)c1.Cl (stereo not drawn) [Example 2, 2-(dimethylaminophenylmethyl)-1-(3-fluorophenyl)cyclohexaniol, hydrochloride] |  | 52 | 52 | 76 | 80 |  | % Inhibition of the writhing reaction at 10 mg/kg intravenously [1]: 88%
5 | CN(C)C(c1ccccc1)C1CCCCC1(O)c1ccccc1.Cl (stereo not drawn) [Example 3, 2-(dimethylaminophenylmethyl)-1-phenylcyclohexanol, hydrochloride] | 83 | 50 |  | 68 | 78 | 41 | 
6 | CN(C)C(c1ccccc1)C1CCCCC1(O)c1cccc(O)c1.Cl (stereo not drawn) [Example 4] |  | 46 | 49 | 57 | 70 |  | % Inhibition of the writhing reaction at 10 mg/kg intravenously [1]: 75%
7 | COc1ccc(C2(O)CCCCC2C(c2ccccc2)N(C)C)cc1.Cl (stereo not drawn) [Example 5, 2-(dimethylaminophenylmethyl)-1-(4-methoxyphenyl)cyclohexanol, hydrochloride] | 100 | 54 |  | 56 | 97 | 70 | 
8 | CN(C)C(c1ccccc1)C1CCCCC1(O)c1ccc(Cl)cc1.Cl (stereo not drawn) [Example 6, 1-(4-chlorophenyl)-2-(dimethylaminophenylmethyl)cyclohexanol, hydrochloride] | 83 | 96 |  | 60 | 90 | 51 | 
9 | CN(C)C(c1ccccc1)C1CCCCC1(O)c1ccc(F)cc1.Cl (stereo not drawn) [Example 7, 2-(dimethylaminophenylmethyl)-1-(4-fluorophenyl)cyclohexanol, hydrochloride] | 85 | 78 |  | 56 | 86 | 38 | 
10 | CN(C)C(c1ccccc1)C1CCCCC1(O)c1ccc(Cl)c(Cl)c1 (stereo not drawn) [Example 19, 1-(3,4-dichlorophenyl)-2-(dimethylaminophenylmethyl)-cyclohexanol] |  |  | 50 | 81 | 97 |  | 
11 | CN(C)C(c1ccccc1)C1CC(c2ccccc2)CCC1(O)Cc1ccccc1.Cl (stereo not drawn) [Example 72, 1-benzyl-2-(dimethylaminophenylmethyl)-4-phenylcyclohexanol, hydrochloride] | 89 | 97 |  |  | 99 | 64 | 
12 | CN(C)C(c1ccccc1)C1CCCCC1(O)c1ccc(Br)cc1.Cl (stereo not drawn) [Example 73] |  | 89 | 61 |  | 93 |  | % Inhibition of the writhing reaction at 10 mg/kg intravenously [1]: 75%
13 | CN(C)C(c1ccccc1)C1CCCCC1(O)c1cccc2ccccc12.Cl (stereo not drawn) [Example 74, 2-(dimethylaminophenylmethyl)-1-naphthalene-1-ylcyclohexanol, hydrochloride] | 37 | 83 |  |  | 93 | 24 | 
14 | CSc1ccccc1C1(O)CCCCC1C(c1ccccc1)N(C)C.Cl (stereo not drawn) [Example 75, 2-(dimethylaminophenylmethyl)-1-(2-methylsulfanylphenyl)cyclohexanol, hydrochloride] | 57 | 89 |  |  | 93 | 0 | 
15 | CN(C)C(c1ccc2ccccc2c1)C1CCCCC1(O)Cc1ccccc1.Cl (stereo not drawn) [Example 76, 1-benzyl-2-(dimethylaminonaphthalene-2-ylmethyl)cyclohexanol, hydrochloride] | 60 | 73 |  |  | 90 | 80 | 
16 | CN(C)C(c1c(F)c(F)c(F)c(F)c1F)C1CCCCC1(O)Cc1ccccc1.Cl (stereo not drawn) [Example 77, 1-benzyl-2-(dimethylaminopentafluorophenylmethyl)cyclohexanol, hydrochloride] | 54 | 27 |  |  | 56 | 27 | 
17 | Cl.OC1(Cc2ccccc2)CCCCC1C(c1ccccc1)N1CCCCC1 (stereo not drawn) [Example 78, 1-benzyl-2-(phenylpiperidin-1-ylmethyl)cyclohexanol, hydrochloride] | 73 | 95 |  |  | 96 | 84 | 
18 | CN(C)C(c1ccccc1)C1CCCCC1(O)c1ccc(C(F)(F)F)cc1.Cl (stereo not drawn) [Example 79] |  | 67 | 58 |  | 93 |  | % Inhibition of the writhing reaction at 10 mg/kg intravenously [1]: 71%
19 | CCC(O)(Cc1ccc(C(C)(C)C)cc1)C(C)C(c1ccccc1)N(C)C.Cl (stereo not drawn) [Example 80] |  | 100 | 18 |  | 100 |  | % Inhibition of the writhing reaction at 10 mg/kg intravenously [1]: 61%
20 | Cc1ccccc1C(C1CCCCC1(O)c1ccccc1)N(C)C.Cl (stereo not drawn) [Example 81, 2-(dimethylamino-o-tolylmethyl)-1-phenylcyclohexanol, hydrochloride] |  |  |  |  |  |  | % Inhibition of the writhing reaction at 10 mg/kg intravenously ([1]; hydrochloride, 10 mg/kg): 75%; NA Uptake Inhibition at 1 μM ([2]; hydrochloride): 66%; Diltiazem Binding at 10 μM ([4]; hydrochloride): 83%; BTX Binding at 10 μM ([5]; hydrochloride): 99%
21 | CN(C)C(c1cccs1)C1CCCCC1(O)Cc1ccc(C(C)(C)C)cc1.Cl (stereo not drawn) [Example 82, 1-(4-tert.-butylbenzyl)-2-[dimethylaminothiophen-2-ylmethyl]cyclohexanol, hydrochloride] | 100 | 85 |  |  | 98 | 0 | 
22 | COc1ccc(CCN(C)CCCC(C#N)(c2ccc(OC)c(OC)c2)C(C)C)cc1OC (stereo not drawn) [N-methyl-[^3H]-verapamil, reference compound] |  |  |  |  |  |  | Kd ([3]; radioligand, N=2, read-out: KD value for this binding site): 139 nM
